These results are taken from PubChem BioAssay AID1259411 (Chemical Carcinogenesis Research Information System (CCRIS), 2018).

Structures are written as SMILES. Calls of active or inactive are those of the source. The rule behind the calls is not given here.

For the series, the system named is rodent carcinogenicity bioassays, tumor incidence. Kind of series: CCRIS carcinogenicity studies. The gist of the method: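 NCI-built, expert-reviewed records of carcinogenicity and related test outcomes (mutagenicity, tumor promotion/inhibition) compiled from published and report sources, historical span 1985-2011, not updated.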

For the compound `Nc1ccc2cc3ccccc3cc2c1`, the carcinogen call was “active; positive” (Species: HAMSTER, Strain/Sex: SYRIAN, Route: DERMAL, Dose: 4 DROPS OF 1% SOLN IN ACETONE 2/WK FOR 10 WK, 8 DROPS FOR 40 WK, 4 DROPS FOR 5 WK, Tumor Site: Type of Lesion: INTEGUMENTARY SYSTEM (SKIN): PAPILLOMA, EPIDERMAL TUMOR); “active; positive” (Species: MOUSE, Strain/Sex: MALE,FEMALE, Route: DERMAL, Dose: 1% SATURATED SOLN IN ACETONE 2/WK (0.025 ML FOR 30 D OR 0.1 ML FOR 140 D), THEN 0.05 ML THEREAFTER, Tumor Site: Type of Lesion: INTEGUMENTARY SYSTEM (SKIN): SQUAMOUS CELL EPITHELIOMA); “active; positive” (Species: RAT, Strain/Sex: ALBINO/MALE, Route: DERMAL, Dose: 1% IN ACETONE 2/WK FOR 34-36 WK, Tumor Site: Type of Lesion: INTEGUMENTARY SYSTEM (SKIN): SQUAMOUS CELL CARCINOMA, BASAL CELL EPITHELIOMA, FIBROSARCOMA); “active; positive” (Species: RAT, Strain/Sex: F344/MALE,FEMALE, Route: DERMAL, Dose: 0.18 ML OF 1% SOLN IN ACETONE 2/WK FOR 180 OR 250-300 D, Tumor Site: Type of Lesion: INTEGUMENTARY SYSTEM (SKIN): SQUAMOUS CELL CARCINOMA, BASAL CELL EPITHELIOMA, FIBROSARCOMA); “active; positive” (Species: RAT, Strain/Sex: HOLTZMAN/MALE,FEMALE, Route: DERMAL, Dose: 0.18 ML OF 1% SOLN IN ACETONE 2/WK FOR 180 OR 250-300 D, Tumor Site: Type of Lesion: INTEGUMENTARY SYSTEM (SKIN): SQUAMOUS CELL CARCINOMA, BASAL CELL EPITHELIOMA, FIBROSARCOMA); “active; positive” (Species: RAT, Strain/Sex: LONG-EVANS/MALE,FEMALE, Route: DERMAL, Dose: 0.18 ML OF 1% SOLN IN ACETONE 2/WK FOR 180 OR 250-300 D, Tumor Site: Type of Lesion: INTEGUMENTARY SYSTEM (SKIN): SQUAMOUS CELL CARCINOMA, BASAL CELL EPITHELIOMA, FIBROSARCOMA). Moreover, for the setting “Species: RAT, Strain/Sex: SPRAGUE-DAWLEY/FEMALE, Route: GAVAGE, Dose: 0.05, 1.0, 2.5 MG IN 1 ML SESAME OIL 1/3 D FOR 10 D (TOTAL DOSE 0.5-25 MG), Dose: 0.05, 1.0, 2.5 MG IN 1 ML SESAME OIL 1/3 D FOR 10 D (TOTAL DOSE 0.5-25 MG), Tumor Site: Type of Lesion: MAMMARY GLAND”, the carcinogen call is “active; positive”.

With `O=C1OC2(c3ccccc31)c1ccc(O)c(I)c1Oc1c2ccc(O)c1I`, the carcinogen call (Species: MOUSE, Strain/Sex: ICR/FEMALE, Route: DERMAL, Dose: 0, 1 MG IN 0.1 ML DISTILLED WATER 2/WK FOR A MEAN TOTAL DOSE OF 132.6 MG (STUDY DURATION: 18 MO)) was “inactive; negative” and the carcinogen call (Species: MOUSE, Strain/Sex: ICR/MALE, Route: DERMAL, Dose: 0, 1 MG IN 0.1 ML DISTILLED WATER 2/WK FOR A MEAN TOTAL DOSE OF 132.6 MG (STUDY DURATION: 18 MO)) was “inactive; negative”.

On to `CC1CN(N=O)C(=O)O1` (centres undefined), for which the carcinogen call (Species: HAMSTER, Strain/Sex: SYRIAN/FEMALE, Route: GAVAGE, Dose: 0, 14 MG/ML ((0.2 ML OF A SOLUTION IN ETHYL ACETATE/CORN OIL (1:2)) 1/WK FOR 28 WK (STUDY DURATION: LIFE SPAN), Tumor Site: Type of Lesion: FORESTOMACH: SQUAMOUS CELL CARCINOMA OR PAPILLOMA) was “active; positive”.

Regarding `Cc1cc(N=Nc2ccccc2C)ccc1N`, the carcinogen call by setting is: (Species: DOG, Route: ORAL, Tumor Site: Type of Lesion: LIVER, GALL BLADDER, URINARY BLADDER, Tumor Site: Type of Lesion: LIVER, GALL BLADDER, URINARY BLADDER) “active; positive”; (Species: HAMSTER, Route: ORAL, Tumor Site: Type of Lesion: LIVER, URINARY BLADDER) “active; positive”; (Species: MOUSE, Route: INTRAPERITONEAL, ORAL, SUBCUTANEOUS, DERMAL, Tumor Site: Type of Lesion: LIVER) “active; positive”; (Species: MOUSE, Route: ORAL, SUBCUTANEOUS, Tumor Site: Type of Lesion: LUNG) “active; positive”; (Species: RAT, Route: ORAL, SUBCUTANEOUS, Tumor Site: Type of Lesion: LIVER) “active; positive”.

Take `O=C1OC(=O)c2ccccc21`: the carcinogen call runs as follows: (Species: MOUSE, Strain/Sex: B6C3F1/FEMALE, Route: ORAL, Dose: 0, 12019, 24038 PPM IN DIET, TWA (STUDY DURATION: 104 WK), Dose: 0, 12019, 24038 PPM IN DIET, TWA (STUDY DURATION: 104 WK)) “inactive; negative”; (Species: MOUSE, Strain/Sex: B6C3F1/MALE, Route: ORAL, Dose: 0, 16346, 32692 PPM IN DIET, TWA (STUDY DURATION: 104 WK), Dose: 0, 16346, 32692 PPM IN DIET, TWA (STUDY DURATION: 104 WK)) “inactive; negative”; (Species: RAT, Strain/Sex: F344/FEMALE, Route: ORAL, Dose: 0, 7500, 15000 PPM IN DIET FOR 105 WK, Dose: 0, 7500, 15000 PPM IN DIET FOR 105 WK) “inactive; negative”; (Species: RAT, Strain/Sex: F344/MALE, Route: ORAL, Dose: 0, 7500, 15000 PPM IN DIET FOR 105 WK, Dose: 0, 7500, 15000 PPM IN DIET FOR 105 WK) “inactive; negative”.

On to `O=C(O)CCCC/C=C(\c1ccccc1)c1cccnc1`, for which the carcinogen call (Species: MOUSE, Strain/Sex: CD-1/FEMALE, Route: ORAL, Dose: 0, 10, 30, 100, 300 MG/KG/D IN DIET FOR 2 YR (STUDY DURATION: 2 YR), Dose: 0, 10, 30, 100, 300 MG/KG/D IN DIET FOR 2 YR (STUDY DURATION: 2 YR)) is “inactive; negative”; the carcinogen call (Species: MOUSE, Strain/Sex: CD-1/MALE, Route: ORAL, Dose: 0, 10, 30, 100, 300 MG/KG/D IN DIET FOR 2 YR (STUDY DURATION: 2 YR), Dose: 0, 10, 30, 100, 300 MG/KG/D IN DIET FOR 2 YR (STUDY DURATION: 2 YR)) was “inactive; negative”; the carcinogen call (Species: RAT, Strain/Sex: STRAIN-CD/FEMALE, Route: ORAL, Dose: 0, 10, 30, 100 MG/KG/D IN DIET FOR 2 YR (STUDY DURATION: 2 YR), Dose: 0, 10, 30, 100 MG/KG/D IN DIET FOR 2 YR (STUDY DURATION: 2 YR)) is “inactive; negative”; the carcinogen call (Species: RAT, Strain/Sex: STRAIN-CD/MALE, Route: ORAL, Dose: 0, 10, 30, 100 MG/KG/D IN DIET FOR 2 YR (STUDY DURATION: 2 YR), Dose: 0, 10, 30, 100 MG/KG/D IN DIET FOR 2 YR (STUDY DURATION: 2 YR)) was “inactive; negative”.

Take `CCS(=O)(=O)c1ccc(S(N)(=O)=O)c2ccccc12`: the carcinogen call runs as follows: (Species: MOUSE, Strain/Sex: A X 1F/FEMALE, Route: ORAL, Dose: 0, 0.01% IN POWDERED OXOID DIET (STUDY DURATION: 333-701 D), Tumor Site: Type of Lesion: BLADDER: CARCINOMA, LUNG: ADENOMA) “active; positive”; (Species: MOUSE, Strain/Sex: A X 1F/FEMALE, Route: ORAL, Dose: 0, 0.01% IN POWDERED OXOID DIET PRECEDED BY IRRADIATION OF 1000 RAD WITH UPPER BODY SHIELDED 48H PRIOR TO DOSING (STUDY, Tumor Site: Type of Lesion: BLADDER: CARCINOMA, LUNG: ADENOMA) “active; positive”.

`O=C1OC(O)C(C(Cl)Cl)=C1Cl` (centres undefined): the carcinogen call is “active; positive” (Species: RAT, Strain/Sex: WISTAR/FEMALE, Route: ORAL, Dose: 0, 0.6, 1.9, 6.6 MG/KG BW IN DRINKING WATER FOR 104 WK (STUDY DURATION: 104 WK), Dose: 0, 0.6, 1.9, 6.6 MG/KG BW IN DRINKING WATER FOR 104 WK (STUDY DURATION: 104 WK), Tumor Site: Type of Lesion: MAMMARY GLAND: ADENOCARCINOMA, FIBROADENOMA, HEMATOPOIETIC SYSTEM: LYMPHOMA OR LEUKEMIA, LIVER: CHOLANGIOMA, ADENOMA, AD, Tumor Site: Type of Lesion: MAMMARY GLAND: ADENOCARCINOMA, FIBROADENOMA, HEMATOPOIETIC SYSTEM: LYMPHOMA OR LEUKEMIA, LIVER: CHOLANGIOMA, ADENOMA, AD) and “active; positive” (Species: RAT, Strain/Sex: WISTAR/MALE, Route: ORAL, Dose: 0, 0.4, 1.3, 5 MG/KG BW IN DRINKING WATER FOR 104 WK (STUDY DURATION: 104 WK), Dose: 0, 0.4, 1.3, 5 MG/KG BW IN DRINKING WATER FOR 104 WK (STUDY DURATION: 104 WK), Tumor Site: Type of Lesion: SKIN (SUBCUTANEOUS TISSUE): BASAL CELL TUMOR, LUNG: ALVEOLAR/BRONCHIOLAR ADENOMA, LIVER: CHOLANGIOMA,ADENOMA, PANCREAS (, Tumor Site: Type of Lesion: SKIN (SUBCUTANEOUS TISSUE): BASAL CELL TUMOR, LUNG: ALVEOLAR/BRONCHIOLAR ADENOMA, LIVER: CHOLANGIOMA,ADENOMA, PANCREAS ().

With `Nc1nc2c(ncn2[C@@H]2C[C@H](CO)[C@H]2CO)c(=O)[nH]1`, the carcinogen call by setting is: (Species: Mouse, Strain/Sex: CD-1/Female (60/Group), Route: Oral, Dose: 0, 30, 150, 750 mg/kg in diet for 104 wk, Dose: 0, 30, 150, 750 mg/kg in diet for 104 wk, Tumor Site: Type of Lesion: Upper digestive tract: squamous cell papilloma and carcinoma (0/60 and 0/60 in controls vs 0/60, 3/60, and 4/60, respect) “active; positive”; (Species: Mouse, Strain/Sex: CD-1/Male (60/Group), Route: Oral, Dose: 0, 10, 50, 250 mg/kg in diet for 104 wk, Dose: 0, 10, 50, 250 mg/kg in diet for 104 wk, Tumor Site: Type of Lesion: Upper digestive tract: squamous cell papilloma or carcinoma (0/60 and 0/60 in controls vs 0/60, 3/60, and 4/60, respecti) “active; positive”.
